Reference: US10139394B2, “Method for controlling cancer metastasis or cancer cell migration by modulating the cellular level of lysyl tRNA synthetase” (Medicinal Bioconvergence Research Center, priority 2008, dated 2018)

What was measured:
[1] = test system: membrane translocation of KRS; test: Laminin-dependent membrane translocation of KRS and 67LR, cell fractionation and Western blotting; type: cell-based; conditions: A549 cells; laminin 10 ug/ml, time course; FIG. 7
Experimental: In FIG. 7, A549 cells were treated with laminin (10 ug/ml) and the level of 67LR, 37LRP and KRS was determined by Western blotting at the indicated times. Hsp90 and Cadherin were used as markers for cytoplasm and membrane, respectively. In FIG. 8, A549 cells untreated or treated with laminin for 1 h were subjected to immunofluorescence staining with anti-67LR (MLuC5, Santacruz, sc-59732) (red) and -KRS antibodies (green). In FIG. 9, A549 cells were treated with U73122 (U), staurosporin (ST) and LY294002 (LY) that inhibit PLC-gamma, PKC and PI3K, respectively, for 3 hr, then with laminin for 1 hr and checked how these kinase inhibitors would affect the membrane and cytoplasmic level of 67LR and KRS. In FIG. 10, A549 cells were transfected with Myc-KRS and incubated for 24 h. The cells were treated with the indicated chemicals and then with laminin as above. Myc-KRS was immunoprecipitated, and immunoblotted with anti-p-Thr, -Ser, and -Tyr antibodies. In FIG. 11, A549 cells were transfected with Myc-KRS and cultivated for 24 hr. The transfectants were pre-treated with LY294002 for 3 hr and then treated with laminin for 1 h. Myc-KRS was immunoprecipitated and co-precipitation of 67LR was determined by Western blotting. IgG was used as a control for immunoprecipitation. In FIG. 12, A549 cells were cultivated in the absence and presence of laminin and LY294002 as indicated. EPRS (glutamyl-prolyl-tRNA synthetase) was immunoprecipitated with its specific antibody (AbCam), and co-immunoprecipitation of KRS was determined by Western blotting (upper). The immune-depleted supernatant (ID) were subjected to Western blottingting with anti-KRS and -EPRS antibodies.
The cells were lysed with 20 mM Tris-HCl (pH 7.4) buffer containing 150 mM NaCl, 0.5% TritonX-100, 0.1% SDS, and protease inhibitor. The protein extracts were incubated with normal IgG and protein G agarose for 2 hr and then centrifuged to remove nonspecific IgG binding proteins. […]

A549 cells = test: Cell migration assay in Transwell chamber; type: cell-based; conditions: laminin 10 μg/ml in lower well, 6 hr, in average, FIG. 24 and 18
Experimental: In FIG. 18, A549 cells were transfected with the indicated plasmids, incubated in the absence and presence of laminin and their effect on cell migration was determined by measuring the migrated cells in transwell chamber as described. The numbers of the cells passed through the membrane were counted and shown in each panel. The experiments were performed three times. In FIG. 19, the cells treated as above were used to determine MMP-2 activity and level by zymography and Western blotting, respectively. In FIG. 20, Breast carcinoma 4T-1 cells were transfected with the indicated siRNA and subcutaneously injected to the back of Balb/C mice. After 21 days, mouse lungs were isolated and tumor nodules over 1 mm in diameter were counted. In FIG. 21, two different 4T-1 cells stably expressing exogenously introduced KRS (KRS-1 and -2) were also inoculated as above and the tumor nodules were counted 30 days after injection. […]
FIGS. 24 to 27 show effect of intracellular and extracellular KRS on cell migration, protein synthesis and cell cycle. In FIG. 24, Migration of A549 cells incubated in the absence of laminin was determined was determined by measuring the migrated cells in Transwell chamber. […] After 6 hr of incubation, the migrant were counted. […] In FIG. 27, A549 cells transfected as indicated were fixed and stained with propidium iodide, and their cell cycle was determined by flow cytometry. […]

Substance: laminin: laminin (Engelbreth-Holm-Swarm murine sarcoma) from Sigma
- membrane level of KRS and 67LR [1]: gradually increased
- Migration of the control cells, enhancement (A549 cells): about 6 fold
